From patent US20230243822A1, “MOLECULAR DISEASE PROFILE AND USE THEREOF FOR MONITORING AND TREATING RHEUMATAOID ARTHRITIS” (JANSSEN BIOTECH, INC., priority 2020, published 2023)

How the values were obtained:
14-analyte M-DP panel = experiment: Pharmacodynamic M-DP score, 14-analyte panel (SomaLogic SOMAscan), clinical studies in RA; assay type: in vivo, human; details: for GMean M-DP scores, change: week 4 or latest time point evaluated (weeks 28, 28, and 12, respectively)
Source text: (§1) Serum samples and data from eight interventional clinical studies with seven different active treatments for RA or placebo treatment were obtained and analyzed: sirukumab (anti-IL-6) and placebo treatments in SIRROUND-M (NCT01689532; Takeuchi T, et al. Arthritis Res Ther. 2018 Mar. 7; 20(1): 42), SIRROUND-D (NCT01604343; Takeuchi T, et al. Ann Rheum Dis. 2017 Dec.; 76(12): 2001-2008), and SIRROUND-T (NCT01606761; Aletaha D, et al. Lancet. 2017 Mar. 25; 389(10075): 1206-1217); sirukumab and adalimumab (anti-TNF-alpha) treatments in SIRROUND-H (NCT02019472; Taylor PC, et al. Ann Rheum Dis. 2018 May; 77(5): 658-666); golimumab (anti-TNF-alpha) treatment in GO-FURTHER (NCT00973479; Weinblatt ME, et al. Ann Rheum Dis. 2013 March; 72(3): 381-9); guselkumab (anti-IL-23p19), ustekinumab (anti-IL-12/IL-23p40), and placebo treatments in CNTO1275ARA2001 (NCT01645280; Cox JD, et al. […]); JNJ-40346527 (colony-stimulating factor-1 inhibitor) and placebo treatments in 40346527ARA2001 (NCT01597739; Genovese MC, et al. J Rheumatol. 2015 October; 42(10): 1752-60). Plasma samples were obtained from the RA-MAP TACERA study (Cope AP, et al. Nat Rev Rheumatol. 2018 January; 14(1): 53-60) before (baseline) and 6-months after initiation of conventional synthetic disease-modifying anti-rheumatic drugs (csDMARDs). Details of treatment dose groups, concomitant methotrexate use, and previous experience with csDMARDs and biologics are reported in Table 1. The studies were conducted in accordance with the Declaration of Helsinki. The study protocols were reviewed and approved by an independent ethics committee or institutional review board for each study center. Written informed consent was obtained from all patients before study entry. Additional study details and patient characteristics are available in the referenced publications for each study. For SIRROUND-D and SIRROUND-T studies, sets of serum samples from demographically-matched healthy controls were obtained from commercial sources (BioIVT, Westbury, N.Y.).
(§2) Serum samples from baseline (week 0) and the time points indicated in Table 1 were provided for quantification of 1189 serum analytes using the SomaScan v3.1 platform (SomaLogic, Boulder, Colo.; www.somalogic.com), with the exception of RA-MAP TACERA, for which plasma samples were analyzed for 1301 analytes using the SomaScan v3.2 platform. For some studies, a redacted dataset reporting data for a subset of the analytes was obtained. Relative fluorescence unit (RFU) data were sequentially normalized for hybridization controls (internal standards per samples), median signal across all samples (assumes same total protein concentration across sample set), and calibration controls (common sample standards across analysis plates). Samples failed quality control standards defined by Somalogic were excluded from analyses. The normalized RFU values were log2-transformed for subsequent analyses.
(§3) Changes in analyte expression levels were calculated for individual samples as the log2 transform of the ratio of the analyte level at the indicated time point (visit level) over the analyte level at baseline (baseline level) for a given subject, i.e., log 2(visit level/baseline level). Changes in RA disease-associated analytes per sample were summarized using a pharmacodynamic (PD) molecular disease profile (M-DP) score, defined as the median value of the log 2(visit level/baseline level) values for analytes in the defined M-DP analyte set. […] PD M-DP scores in the log 2(visit level/baseline level) scale can be transformed to percent change from baseline, using the transformation: (2^M-DP score−1)×100%.
Statistical analyses were performed on log2-transformed data, for either normalized Relative fluorescence unit (RFU) datasets or within-subject fold/baseline datasets. Significance of differences between groups was evaluated using General Linear Models, with t-tests when comparing two groups. […]

[1] = test system: 4-analyte M-DP panel (CRP, CXCL10, CXCL13, SAA); experiment: Pharmacodynamic M-DP score, 4-analyte panel CRP, CXCL10, CXCL13, SAA (SOMAscan), clinical studies in RA; assay type: in vivo, human
Source text: as §1, §2, §3
In selecting the best minimal set of analytes that performs similarly to the full 14-analyte set, analyte sets that results in significant associations between DAS28-CRP EULAR good vs. no response with p<0.05 for each study were prioritized (Table 4). […]

RA patients = details: RA patients; cited from earlier work
[2] = 40346527ARA2001, score at week 4, oral 100 mg BID, response at week 12
[3] = 40346527ARA2001, score at week 12, oral 100 mg BID, response at week 12
[4] = 4-analyte, 40346527ARA2001, score at week 4, oral 100 mg BID, response at week 12
[5] = 4-analyte, 40346527ARA2001, score at week 12, oral 100 mg BID, response at week 12
[6] = CNTO1275ARA2001, score at week 4, ustekinumab SC 90 mg or guselkumab SC 50 or 200 mg, response at week 24
[7] = CNTO1275ARA2001, score at week 28, ustekinumab SC 90 mg or guselkumab SC 50 or 200 mg, response at week 24
[8] = 4-analyte, CNTO1275ARA2001, score at week 4, ustekinumab SC 90 mg or guselkumab SC 50 or 200 mg, response at week 24
[9] = 4-analyte, CNTO1275ARA2001, score at week 28, ustekinumab SC 90 mg or guselkumab SC 50 or 200 mg, response at week 24
[10] = SIRROUND-H, score at week 4, sirukumab SC 50 mg q4w or adalimumab SC 40 mg q2w, response at week 24
[11] = 4-analyte, SIRROUND-H, score at week 4, sirukumab SC 50 mg q4w or adalimumab SC 40 mg q2w, response at week 24

CC1(C)CC=C(c2nc(C3CC(C)(C)OC(C)(C)C3)ccc2NC(=O)c2nc(C#N)c[nH]2)CC1 [JNJ-40346527, reference compound]
M-DP score mean ± SD, All treated (14-analyte M-DP panel; 40346527ARA2001, score at week 4, oral 100 mg BID): −0.08 ± 0.27 log2 (fold/baseline)
M-DP score mean difference ± SD, Good vs. No (14-analyte M-DP panel; [2]): 0.08 ± 0.52 log2 (fold/baseline)
M-DP score mean ± SD, DAS28-CRP response group Good (14-analyte M-DP panel; [2]): 0.29 ± 0.42 log2 (fold/baseline)
M-DP score mean ± SD, DAS28-CRP response group Moderate (14-analyte M-DP panel; [2]): −0.05 ± 0.48 log2 (fold/baseline)
M-DP score mean ± SD, DAS28-CRP response group No (14-analyte M-DP panel; [2]): −0.09 ± 0.54 [23] log2 (fold/baseline)
M-DP score mean ± SD, All treated (14-analyte M-DP panel; 40346527ARA2001, score at week 12, oral 100 mg BID): −0.13 ± 0.33 log2 (fold/baseline)
M-DP score mean ± SD, DAS28-CRP response group Good (14-analyte M-DP panel; [3]): −0.50 ± 0.61 log2 (fold/baseline)
M-DP score mean ± SD, DAS28-CRP response group Moderate (14-analyte M-DP panel; [3]): −0.07 ± 0.55 log2 (fold/baseline)
M-DP score mean ± SD, DAS28-CRP response group No (14-analyte M-DP panel; [3]): 0.18 ± 0.50 [22] log2 (fold/baseline)
GMean M-DP scores, change (14-analyte M-DP panel): not decreased
M-DP score mean ± SD, All treated ([1]; 4-analyte, 40346527ARA2001, score at week 4, oral 100 mg BID): −0.03 ± 0.49 log2 (fold/baseline)
M-DP score mean difference ± SD, Good vs. No [1, 4]: 0.34 ± 0.52 (0.1581) log2 (fold/baseline)
M-DP score mean ± SD, DAS28-CRP response group Good [1, 4]: −0.29 ± 0.42 log2 (fold/baseline)
M-DP score mean ± SD, DAS28-CRP response group Moderate [1, 4]: −0.05 ± 0.48 log2 (fold/baseline)
M-DP score mean ± SD, DAS28-CRP response group No [1, 4]: −0.09 ± 0.54 log2 (fold/baseline)
M-DP score mean ± SD, All treated ([1]; 4-analyte, 40346527ARA2001, score at week 12, oral 100 mg BID): −0.01 ± 0.56 log2 (fold/baseline)
M-DP score mean difference ± SD, Good vs. No [1, 5]: −0.68 ± 0.52 (0.0079) log2 (fold/baseline)
M-DP score mean ± SD, DAS28-CRP response group Good [1, 5]: −0.50 ± 0.61 log2 (fold/baseline)
M-DP score mean ± SD, DAS28-CRP response group Moderate [1, 5]: −0.07 ± 0.55 log2 (fold/baseline)
M-DP score mean ± SD, DAS28-CRP response group No [1, 5]: 0.18 ± 0.50 log2 (fold/baseline)
clinical efficacy in the underlying clinical studies (RA patients): not clinically efficacious

ustekinumab [reference compound]
M-DP score mean ± SD, All treated (14-analyte M-DP panel; CNTO1275ARA2001, score at week 4, ustekinumab SC 90 mg or guselkumab SC 50 or 200 mg): −0.08 ± 0.34 log2 (fold/baseline)
M-DP score mean difference ± SD, Good vs. No (14-analyte M-DP panel; [6]): −0.32 ± 0.32 log2 (fold/baseline)
M-DP score mean ± SD, DAS28-CRP response group Good (14-analyte M-DP panel; [6]): −0.24 ± 0.34 log2 (fold/baseline)
M-DP score mean ± SD, DAS28-CRP response group Moderate (14-analyte M-DP panel; [6]): −0.04 ± 0.29 log2 (fold/baseline)
M-DP score mean ± SD, DAS28-CRP response group No (14-analyte M-DP panel; [6]): 0.08 ± 0.31 [31] log2 (fold/baseline)
M-DP score mean ± SD, All treated (14-analyte M-DP panel; CNTO1275ARA2001, score at week 28, ustekinumab SC 90 mg or guselkumab SC 50 or 200 mg): −0.09 ± 0.43 log2 (fold/baseline)
M-DP score mean difference ± SD, Good vs. No (14-analyte M-DP panel; [7]): −0.49 ± 0.41 log2 (fold/baseline)
M-DP score mean ± SD, DAS28-CRP response group Good (14-analyte M-DP panel; [7]): −0.34 ± 0.33 log2 (fold/baseline)
M-DP score mean ± SD, DAS28-CRP response group Moderate (14-analyte M-DP panel; [7]): −0.05 ± 0.23 log2 (fold/baseline)
M-DP score mean ± SD, DAS28-CRP response group No (14-analyte M-DP panel; [7]): −0.15 ± 0.49 [13] log2 (fold/baseline)
GMean M-DP scores, change (14-analyte M-DP panel): not decreased
M-DP score mean ± SD, All treated ([1]; 4-analyte, CNTO1275ARA2001, score at week 4, ustekinumab SC 90 mg or guselkumab SC 50 or 200 mg): −0.05 ± 0.77 log2 (fold/baseline)
M-DP score mean difference ± SD, Good vs. No [1, 8]: −0.81 ± 0.83 (0.0469) log2 (fold/baseline)
M-DP score mean ± SD, DAS28-CRP response group Good [1, 8]: −0.49 ± 0.27 log2 (fold/baseline)
M-DP score mean ± SD, DAS28-CRP response group Moderate [1, 8]: 0.06 ± 0.41 log2 (fold/baseline)
M-DP score mean ± SD, DAS28-CRP response group No [1, 8]: 0.33 ± 0.98 log2 (fold/baseline)
M-DP score mean ± SD, All treated ([1]; 4-analyte, CNTO1275ARA2001, score at week 28, ustekinumab SC 90 mg or guselkumab SC 50 or 200 mg): 0.04 ± 0.84 log2 (fold/baseline)
M-DP score mean difference ± SD, Good vs. No [1, 9]: −0.94 ± 0.82 (0.0323) log2 (fold/baseline)
M-DP score mean ± SD, DAS28-CRP response group Good [1, 9]: −0.53 ± 0.68 log2 (fold/baseline)
M-DP score mean ± SD, DAS28-CRP response group Moderate [1, 9]: −0.04 ± 0.53 log2 (fold/baseline)
M-DP score mean ± SD, DAS28-CRP response group No [1, 9]: 0.41 ± 0.94 log2 (fold/baseline)
M-DP score effect size (decrease), EULAR DAS28-CRP good responders ([1]; week 4 M-DP scores): > 1.0 standard deviation
clinical efficacy in the underlying clinical studies (RA patients): not clinically efficacious

adalimumab [reference compound]
M-DP score decrease (14-analyte M-DP panel; SIRROUND-H, 4-week treatment, adalimumab SC 40 mg q2w): 12%
M-DP score mean ± SD, All treated (14-analyte M-DP panel; SIRROUND-H, score at week 4, sirukumab SC 50 mg q4w or adalimumab SC 40 mg q2w): −0.18 ± 0.33 log2 (fold/baseline)
M-DP score mean difference ± SD, Good vs. No (14-analyte M-DP panel; [10]): −0.06 ± 0.33 log2 (fold/baseline)
M-DP score mean ± SD, DAS28-CRP response group Good (14-analyte M-DP panel; [10]): −0.22 ± 0.37 log2 (fold/baseline)
M-DP score mean ± SD, DAS28-CRP response group Moderate (14-analyte M-DP panel; [10]): −0.17 ± 0.33 log2 (fold/baseline)
M-DP score mean ± SD, DAS28-CRP response group No (14-analyte M-DP panel; [10]): −0.14 ± 0.26 [23] * log2 (fold/baseline)
M-DP score mean ± SD, All treated ([1]; 4-analyte, SIRROUND-H, score at week 4, sirukumab SC 50 mg q4w or adalimumab SC 40 mg q2w): −0.43 ± 0.53 log2 (fold/baseline)
M-DP score mean difference ± SD, Good vs. No [1, 11]: −0.29 ± 0.45 (0.0217) log2 (fold/baseline)
M-DP score mean ± SD, DAS28-CRP response group Good [1, 11]: −0.58 ± 0.50 log2 (fold/baseline)
M-DP score mean ± SD, DAS28-CRP response group Moderate [1, 11]: −0.39 ± 0.59 log2 (fold/baseline)
M-DP score mean ± SD, DAS28-CRP response group No [1, 11]: −0.29 ± 0.37 log2 (fold/baseline)
M-DP score decrease ([1]; 4-analyte, adalimumab, week 4): 26%
M-DP score effect size (decrease below zero) ([1]; 4-analyte, week 4): 0.8 standard deviations
